The values that follow come from publication PMC6984391, “Anion carriers as potential treatments for cystic fibrosis: transport in cystic fibrosis cells, and additivity to channel-targeting drugs” (Chemical Science, 2019).

One data set has as its system YFP-CFBE cells. The data set can be described thus: YFP fluorescence plate reader assay of anion transport in YFP-CFBE cells. The class given is cell-based. The following applies: for anion transport in YFP-CFBE cells (in words) / concentration–response relationship in YFP-CFBE compared with YFP-FRT cells: 1–50 μM; for anionophore concentration matching the effect of UTP (1 mM): anion transport equivalent to CaCC activation, YFP-CFBE cells; for effect of CaCC activation on anionophore-mediated anion transport: anionophore 50 μM with UTP 1 mM; for effect of CaCCinh-A01 on transport by anionophore: anionophore 50 μM, CaCCinh-A01 10 μM. The text has this:
To begin to test anionophores in CF airway epithelial cells, we utilised the CF bronchial epithelial cell line CFBE41o^– engineered to express YFP-H148Q/I152L (YFP-CFBE cells).[34],[35] One advantage of using YFP-CFBE cells is that they endogenously express the Ca^2+-activated Cl^– channel (CaCC), unlike YFP-FRT cells.[33] Thus, using YFP-CFBE cells, we directly compared anion transport by anionophores with that of the CaCC, an alternative pathway to restore anion transport in CF.[13]
FRT cells stably expressing the halide sensor YFP-H148Q/I152L6 were generous gifts of AS Verkman (University of California, San Francisco), while CFBE41o- cells7 stably expressing YFP (YFP-CFBE cells) were a generous gift of LJV Galietta (Telethon Institute for Genetics and Medicine). YFP-FRT cells were cultured as described previously for FRT cells8 except that media contained 10% fetal bovine serum, 2 mM L-glutamine and the selection agent G418 (YFP-FRT cells, 0.5 mg ml-1; WT-CFTR-YFP-FRT cells, 0.75 mg ml-1) or zeocin (F508del-CFTR-YFP-FRT cells, 0.5 mg ml-1). YFP-CFBE cells were cultured in minimal essential medium (MEM) supplemented with 10% fetal bovine serum, 2 mM L-glutamine, 100 U ml-1 penicillin and […] streptomycin. All cells were incubated at 37 °C in a humidified atmosphere with 5% CO2.
For fluorescence microplate reader studies, cells were seeded in 96-well plates and grown in culture media at 37 °C in a humidified atmosphere with 5% CO2 for 3 – 4 days until […]
90% confluent. […]
Fluorescence plate reader assay […]
quenching of YFP fluorescence at 37 °C using a microplate reader following the method of Galietta et al..9 The microplate reader (model: FLUORstar Omega; BMG LABTECH Ltd., Aylesbury, UK) was equipped with a syringe pump and excitation (500 ± 10 nm) and emission (535 ± 15 nm) filters (Chroma Technology GmbH, Olching, Germany). After washing cells twice with PBS (composition (mM): 137 NaCl, 2.7 KCl, 8.1 Na2HPO4, 1.5 KH2PO4, 1 CaCl2 and 0.5 MgCl2, pH 7.40), cells were incubated with test anionophores (1 – 50 µM) or the vehicle (DMSO [0.1 – 0.5% v v-1]) in 40 µl of PBS for 10 – 120 minutes according to the experimental design. Other compounds, including forskolin, ivacaftor and channel inhibitors were added to […]
the PBS bathing cells 10 minutes prior to PBS iodide addition, whereas UTP was added to cells with the PBS iodide solution. Fluorescence was measured for 14 seconds; 2 seconds before and 12 seconds after injection of 110 µl PBS iodide solution (137 mM Cl- replaced by I-) into each well (to obtain a final concentration of I- of 100 mM).
We expressed cell fluorescence values (F) relative to the fluorescence value immediately before I- injection (F0), excluding the initial decrease, which likely represents the quenching of extracellular YFP released from cells and signal reduction accompanying the increase in solution volume bathing cells. To quantify anion transport by test anionophores, we determined the initial slope of the fluorescence decay following I - addition by fitting first order exponential functions to the last 12 seconds of each fluorescence recording. In each experim ent, n values represent the mean of two replicates and all treatments were tested at least three times using different microplates. […]
FRT cells was selected and the cells were perfused with (i) PBS for 5 minutes then (ii) PBS containing I- (10 mM) (made by preparing PBS with 127 mM NaCl to maintain osmolarity) for 5 minutes and finally (iii) PBS for 30 minutes to remove thoroughly I- from the perfusion chamber. YFP-FRT cells were repeatedly treated with I- (10 mM) and then washed with PBS […]
During all interventions, the rate of solution perfusion was 8 – 10 ml min-1; temperature was 37 °C and except for the first 15 minutes of PBS washing, no data were collected between cycles of I- perfusion and PBS […]
For cell fluorescence measurements, we used the Volocity (Improvision) data acquisition and analysis system and a cooled CCD camera (Hamamatsu ORCA ER firewall) […]

A further data set relates to YFP-FRT cells. The data set can be described thus: IncuCyte ZOOM apoptosis (annexin V red) in YFP-FRT cells. The format is cell-based. The following applies: for time from which apoptosis is apparent: 30 and 50 μM, P < 0.05 vs. DMSO; for induction of apoptosis: all concentrations tested, 24 h period. On the procedure:
To test for the induction of apoptosis by anionophores, we also used the IncuCyte ZOOMTM (Essen Bioscience) live-cell analysis system. YFP-FRT cells were seeded and grown on 96-well plates as described above for cell viability studies. After 48 h, the YFP-FRT culture media was replaced with fresh culture media containing test anionophores or the vehicle (DMSO 0.5% v v-1) and IncuCyte annexin V red reagent (Essen Bioscience) was added following the manufacturer’s instructions before the YFP-FRT cells were transferred to the IncuCyte ZOOMTM. At 2 h intervals over a 24 h period, 4 images of each well on 96-well plates were acquired; the phase contrast images were used to determine the total number of cells per well, while the fluorescence images to identify the number of apoptotic cells labelled red by the IncuCyte annexin V red reagent. In each experiment, one data point is the average value […]
Except for ivacaftor and lumacaftor (Selleck Chemicals; Stratech Scientific Ltd., Newmarket, UK), chemicals were supplied by the Sigma-Aldrich Company Ltd. (now Merck KGaA) (Gillingham, UK). UTP was dissolved in distilled water, forskolin in methanol, while anionophores and channel modulators were prepared in DMSO. Stock solutions were stored at –20 °C except those of anionophores, which were stored at room temperature. Immediately before use, stock solutions were diluted to final concentrations. Precautions against light-sensitive reactions were observed when using anionophores and channel modulators. DMSO […]
Previous work has identified that some anionophores trigger apop totic cell death.18,19,2018,19 Using the IncuCyte ZOOMTM live-cell analysis system and the IncuCyte annexin V red reagent, we assessed whether the anionophores 11, 12, 15 and 19 induce […]
concentrations ≥ 10 µM with the effects of 30 and 50 µM apparent from as early as 2 h (P < […]
concentrations tested over the 24 h period studied (P > 0.05 vs. DMSO 0.5% v v-1) (Fig. S25). […]
the data re-affirm the promising biological activity of anionophore 11.

Structures are written as SMILES.

For the molecule `FC(F)(F)c1cc(NC(=S)NCCN(CCNC(=S)Nc2cc(C(F)(F)F)cc(C(F)(F)F)c2)CCNC(=S)Nc2cc(C(F)(F)F)cc(C(F)(F)F)c2)cc(C(F)(F)F)c1` [Compound 19], in the data set with YFP-CFBE cells (10 μM), the “effect of increasing incubation period from 10 to 120 minutes on anion transport” value (shortened to “effect of increasing incubation period”) is “increased noticeably”. Further, the “effect of increasing incubation period” value in the data set with YFP-CFBE cells (50 μM) is listed as “increased noticeably”. In addition, in the data set on YFP-CFBE cells, the “anion transport in YFP-CFBE cells (in words)” value (“anion transport … (in words)” for short) is recorded as “mediated anion transport”, the “concentration–response relationship in YFP-CFBE compared with YFP-FRT cells” value was “similar”, the “anionophore concentration matching the effect of UTP (1 mM)” value is 1 µM and the “effect of CaCC activation on anionophore-mediated anion transport” value (“effect of CaCC activation” for short) is listed as “strongly additive”. Moreover, the “effect of CaCCinh-A01 on transport by anionophore” value (from here on “effect of CaCCinh-A01 on transport”) in the data set with YFP-CFBE cells was “direct inhibitory effect”. Moreover, in the data set on YFP-FRT cells, the “time from which apoptosis is apparent” value is ≥ 2 h and the induction of apoptosis result is “positive effects”.

For the molecule `CCOC(=O)[C@]12CC[C@@H](NC(=S)Nc3ccc([N+](=O)[O-])cc3)C[C@@H]1C[C@@H](NC(=S)Nc1ccc([N+](=O)[O-])cc1)CC2` [Compound 12], the “effect of increasing incubation period” value with YFP-CFBE cells (10 μM) is “increased noticeably”. The “effect of increasing incubation period” value in the data set on YFP-CFBE cells (50 μM) is listed as “dramatic acceleration”. In the data set on YFP-CFBE cells, the “anion transport … (in words)” value is given as “mediated anion transport”, the “concentration–response relationship in YFP-CFBE compared with YFP-FRT cells” value was “identical”, the “anionophore concentration matching the effect of UTP (1 mM)” value stood at 1 µM and the “effect of CaCC activation” value is “either without effect or weakly additive”. Further, the “effect of CaCCinh-A01 on transport” value in the data set with YFP-CFBE cells was “not observed”. In the data set with YFP-FRT cells, the “time from which apoptosis is apparent” value was ≥ 2 h and the induction of apoptosis result is “positive effects”.

Consider `CCOC(=O)[C@]12CC[C@@H](NC(=S)Nc3cc(C(F)(F)F)cc(C(F)(F)F)c3)C[C@@H]1C[C@@H](NC(=S)Nc1cc(C(F)(F)F)cc(C(F)(F)F)c1)CC2` [Compound 15], for which, in the data set on YFP-CFBE cells, the “anion transport … (in words)” value is “mediated anion transport”, the “concentration–response relationship in YFP-CFBE compared with YFP-FRT cells” value is “less efficacious”, the “anionophore concentration matching the effect of UTP (1 mM)” value is 1 µM and the “effect of CaCC activation” value is “either without effect or weakly additive”. Moreover, in the data set on YFP-CFBE cells, the “effect of CaCCinh-A01 on transport” value is on record as “not observed”. Also, in the data set on YFP-FRT cells, the “time from which apoptosis is apparent” value was ≥ 2 h and the induction of apoptosis result is “positive effects”.
